Test results taken from the supplement of paper PMC10307832.

Key:
Assay in all cases: relative viability (nuclei count vs DMSO), 5 days (fraction); higher = more cells survive
NCI-H2085 = test system: NCI-H2085
Summary of the method: (§1)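 Medians of duplicate plates are given as relative viability. That measure is the nuclei count in treated wells divided by the count in vehicle wells. Counts were taken on 4× images of lung cancer cell lines in 1536-well plates, 5 days after pin-tool dosing the day after seeding with one drug alone or a fixed anchor-drug dose plus five library-drug doses (not always all listed) in √10 steps.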

NCI-H460 = test system: NCI-H460
Summary of the method: as §1

COR-L23 = test system: COR-L23
Summary of the method: as §1

NCI-H1563 = test system: NCI-H1563
Summary of the method: as §1

NCI-H1355 = test system: NCI-H1355
Summary of the method: as §1

NCI-H2023 = test system: NCI-H2023
Summary of the method: as §1

LOU-NH91 = test system: LOU-NH91
Summary of the method: as §1

NCI-H838 = test system: NCI-H838
Summary of the method: as §1

NCI-H1975 = test system: NCI-H1975
Summary of the method: as §1

NCI-H2342 = test system: NCI-H2342
Summary of the method: as §1

BEN = test system: BEN
Summary of the method: as §1

NCI-H1437 = test system: NCI-H1437
Summary of the method: as §1

LU99A = test system: LU99A
Summary of the method: as §1

SK-LU-1 = test system: SK-LU-1
Summary of the method: as §1

CAL-12T = test system: CAL-12T
Summary of the method: as §1

NCI-H1651 = test system: NCI-H1651
Summary of the method: as §1

NCI-H358 = test system: NCI-H358
Summary of the method: as §1

NCI-H1650 = test system: NCI-H1650
Summary of the method: as §1

NCI-H1793 = test system: NCI-H1793
Summary of the method: as §1

NCI-H1734 = test system: NCI-H1734
Summary of the method: as §1

NCI-H441 = test system: NCI-H441
Summary of the method: as §1

O=c1cc(N2CCOCC2)oc2c(-c3cccc4c3sc3ccccc34)cccc12 + CCNC(=O)c1noc(-c2cc(C(C)C)c(O)cc2O)c1-c1ccc(CN2CCOCC2)cc1 [Luminespib] (partner 0.01 µM)
relative viability (NCI-H2085; first compound 0.01 µM): 0.407 | relative viability (NCI-H2085; first compound 0.03162 µM): 0.427 | relative viability (NCI-H2085; first compound 0.1 µM): 0.534 | relative viability (NCI-H2085; first compound 0.3162 µM): 0.49 | relative viability (NCI-H2085; first compound 1 µM): 0.48 | relative viability (NCI-H460; first compound 0.01 µM): 0.037 | relative viability (NCI-H460; first compound 0.03162 µM): 0.0402 | relative viability (NCI-H460; first compound 0.1 µM): 0.0368 | relative viability (NCI-H460; first compound 0.3162 µM): 0.035 | relative viability (NCI-H460; first compound 1 µM): 0.0452 | relative viability (COR-L23; first compound 0.01 µM): 0.763 | relative viability (COR-L23; first compound 0.03162 µM): 0.654 | relative viability (COR-L23; first compound 0.1 µM): 0.724 | relative viability (COR-L23; first compound 0.3162 µM): 0.608 | relative viability (COR-L23; first compound 1 µM): 0.779 | relative viability (NCI-H1563; first compound 0.01 µM): 0.519 | relative viability (NCI-H1563; first compound 0.03162 µM): 0.552 | relative viability (NCI-H1563; first compound 0.1 µM): 0.515 | relative viability (NCI-H1563; first compound 0.3162 µM): 0.558 | relative viability (NCI-H1563; first compound 1 µM): 0.544 | relative viability (NCI-H1355; first compound 0.01 µM): 0.815 | relative viability (NCI-H1355; first compound 0.03162 µM): 0.708 | relative viability (NCI-H1355; first compound 0.1 µM): 0.669 | relative viability (NCI-H1355; first compound 0.3162 µM): 0.728 | relative viability (NCI-H1355; first compound 1 µM): 0.688 | relative viability (NCI-H2023; first compound 0.01 µM): 0.672 | relative viability (NCI-H2023; first compound 0.03162 µM): 0.72 | relative viability (NCI-H2023; first compound 0.1 µM): 0.793 | relative viability (NCI-H2023; first compound 0.3162 µM): 0.859 | relative viability (NCI-H2023; first compound 1 µM): 0.588 | relative viability (LOU-NH91; first compound 0.01 µM): 0.352 | relative viability (LOU-NH91; first compound 0.03162 µM): 0.318 | relative viability (LOU-NH91; first compound 0.1 µM): 0.33 | relative viability (LOU-NH91; first compound 0.3162 µM): 0.373 | relative viability (LOU-NH91; first compound 1 µM): 0.36 | relative viability (NCI-H838; first compound 0.01 µM): 0.347 | relative viability (NCI-H838; first compound 0.03162 µM): 0.362 | relative viability (NCI-H838; first compound 0.1 µM): 0.406 | relative viability (NCI-H838; first compound 0.3162 µM): 0.294 | relative viability (NCI-H838; first compound 1 µM): 0.287 | relative viability (NCI-H1975; first compound 0.01 µM): 0.198 | relative viability (NCI-H1975; first compound 0.03162 µM): 0.242 | relative viability (NCI-H1975; first compound 0.1 µM): 0.202 | relative viability (NCI-H1975; first compound 0.3162 µM): 0.271 | relative viability (NCI-H1975; first compound 1 µM): 0.227 | relative viability (NCI-H2342; first compound 0.01 µM): 0.667 | relative viability (NCI-H2342; first compound 0.03162 µM): 0.58 | relative viability (NCI-H2342; first compound 0.1 µM): 0.696 | relative viability (NCI-H2342; first compound 0.3162 µM): 0.586 | relative viability (NCI-H2342; first compound 1 µM): 0.742 | relative viability (BEN; first compound 0.01 µM): 0.298 | relative viability (BEN; first compound 0.03162 µM): 0.359 | relative viability (BEN; first compound 0.1 µM): 0.236 | relative viability (BEN; first compound 0.3162 µM): 0.497 | relative viability (BEN; first compound 1 µM): 0.318 | relative viability (NCI-H1437; first compound 0.01 µM): 0.835 | relative viability (NCI-H1437; first compound 0.03162 µM): 1.03 | relative viability (NCI-H1437; first compound 0.1 µM): 1.1 | relative viability (NCI-H1437; first compound 0.3162 µM): 1.08 | relative viability (NCI-H1437; first compound 1 µM): 1.04 | relative viability (LU99A; first compound 0.01 µM): 0.266 | relative viability (LU99A; first compound 0.03162 µM): 0.23 | relative viability (LU99A; first compound 0.1 µM): 0.232 | relative viability (LU99A; first compound 0.3162 µM): 0.267 | relative viability (LU99A; first compound 1 µM): 0.183 | relative viability (SK-LU-1; first compound 0.01 µM): 0.206 | relative viability (SK-LU-1; first compound 0.03162 µM): 0.234 | relative viability (SK-LU-1; first compound 0.1 µM): 0.201 | relative viability (SK-LU-1; first compound 0.3162 µM): 0.206 | relative viability (SK-LU-1; first compound 1 µM): 0.215 | relative viability (CAL-12T; first compound 0.01 µM): 0.723 | relative viability (CAL-12T; first compound 0.03162 µM): 0.621 | relative viability (CAL-12T; first compound 0.1 µM): 0.292 | relative viability (CAL-12T; first compound 0.3162 µM): 0.31 | relative viability (CAL-12T; first compound 1 µM): 0.527 | relative viability (NCI-H1651; first compound 0.01 µM): 0.777 | relative viability (NCI-H1651; first compound 0.03162 µM): 0.736 | relative viability (NCI-H1651; first compound 0.1 µM): 0.824 | relative viability (NCI-H1651; first compound 0.3162 µM): 0.712 | relative viability (NCI-H1651; first compound 1 µM): 0.807 | relative viability (NCI-H358; first compound 0.01 µM): 0.235 | relative viability (NCI-H358; first compound 0.03162 µM): 0.397 | relative viability (NCI-H358; first compound 0.1 µM): 0.33 | relative viability (NCI-H358; first compound 0.3162 µM): 0.229 | relative viability (NCI-H358; first compound 1 µM): 0.332 | relative viability (NCI-H1650; first compound 0.01 µM): 0.211 | relative viability (NCI-H1650; first compound 0.03162 µM): 0.169 | relative viability (NCI-H1650; first compound 0.1 µM): 0.196 | relative viability (NCI-H1650; first compound 0.3162 µM): 0.203 | relative viability (NCI-H1650; first compound 1 µM): 0.191 | relative viability (NCI-H1793; first compound 0.01 µM): 0.159 | relative viability (NCI-H1793; first compound 0.1 µM): 0.173 | relative viability (NCI-H1793; first compound 0.3162 µM): 0.134 | relative viability (NCI-H1793; first compound 1 µM): 0.18 | relative viability (NCI-H1734; first compound 0.01 µM): 0.199 | relative viability (NCI-H1734; first compound 0.03162 µM): 0.168 | relative viability (NCI-H1734; first compound 0.1 µM): 0.216 | relative viability (NCI-H1734; first compound 0.3162 µM): 0.187 | relative viability (NCI-H1734; first compound 1 µM): 0.179 | relative viability (NCI-H441; first compound 0.01 µM): 0.334 | relative viability (NCI-H441; first compound 0.03162 µM): 0.406 | relative viability (NCI-H441; first compound 0.1 µM): 0.357 | relative viability (NCI-H441; first compound 0.3162 µM): 0.417 | relative viability (NCI-H441; first compound 1 µM): 0.454
